One data set deals with hiPSC-CMs. Description: Spontaneous action potential recording in hiPSC-CMs (whole-cell current clamp). It is filed as cell-based, human. The method, then: (§1) The hiPSC-CMs from human fibroblast cell lines (iCell Cardiomyocytes; Cellular Dynamics International, Madison, WI, USA) were purchased and cultured for single-cell electrophysiological recordings. Frozen vials of hiPSC-CMs were thawed in a water bath maintained at 37°C and mixed with ice-cold plating medium (iCell Cardiomyocyte Plating Medium, glucose-free). The cells were transferred to four-well culture plates containing 0.1% gelatin-coated glass coverslips and then maintained in a culture incubator at 37°C in an atmosphere of 93% air and 7% CO2. After 2 days of culture, the plating medium was replaced with culture medium (iCell Cardiomyocyte Maintenance Medium, glucose-free), which was then changed every 2 days. The hiPSC-CMs were cultured for 4 weeks and used at 7 to 28 days post-thaw for electrophysiological analysis. At this time, the amplitudes and intervals of the spontaneous APs are stabilized, and electrically connected syncytial layers are formed. […] The internal solution contained (in mM) 120 K-Asp, 20 KCl, 5 NaCl, 2 CaCl2, 10 HEPES, 5 EGTA, and 5 Mg-ATP (pH 7.25). We recorded typical APs in hiPSC-CMs in the current-clamp mode. The spontaneous beating activity or paced firing of single hiPSC-CMs were recorded, and only hiPSC-CMs that could beat stably were included in the analysis. Following stabilization of the AP waveforms, the average of six recorded APs for each test concentration was analyzed.
Using the patch-clamp technique, we measured the APs in spontaneously contracting cells isolated from hiPSC-CMs. […] Ventricular-type APs were distinguished based on the relatively more negative maximal diastolic potential (MDP) and rapid AP upstroke with long plateau phase.

Another data set addresses T1, IhERG in hiPSC-CMs (Homo sapiens, UniProt Q12809).
T1 construct: host or cells: hiPSC-CMs (iCell Cardiomyocytes)
Description: IhERG current in hiPSC-CMs (voltage clamp). It is filed as cell-based. Further details: unit not given here. The method, then: as §1, with “analysis.” for “analysis. At this time, the amplitudes and intervals of the spontaneous APs are stabilized, and electrically connected syncytial layers are formed.”
pCLAMP (Axon Instruments, Foster City, CA, USA), Origin 8 (OriginLab Corp, Northampton, MA, USA), and Excel (Microsoft, Redmond, WA, USA) were used for data acquisition and analysis. The concentration–response relationships for drug-induced blockage were calculated using SigmaPlot (Systat Software, San Jose, CA, USA). […] Data are presented as the means ± SEM, and n represents the number of experimental replicates. Statistical significance was determined using the Student’s t-test and one-way ANOVA with post hoc testing using Dunnett’s method; p < 0.05 was considered to indicate statistical significance.

The results in this text go back to paper PMC5891061, “Electrophysiological mechanisms of vandetanib-induced cardiotoxicity: Comparison of action potentials in rabbit Purkinje fibers and pluripotent stem cell-derived cardiomyocytes” (PLoS ONE, 2018).

Bounds are passed on as bounds.

T1 sequence (Q12809 whole entry): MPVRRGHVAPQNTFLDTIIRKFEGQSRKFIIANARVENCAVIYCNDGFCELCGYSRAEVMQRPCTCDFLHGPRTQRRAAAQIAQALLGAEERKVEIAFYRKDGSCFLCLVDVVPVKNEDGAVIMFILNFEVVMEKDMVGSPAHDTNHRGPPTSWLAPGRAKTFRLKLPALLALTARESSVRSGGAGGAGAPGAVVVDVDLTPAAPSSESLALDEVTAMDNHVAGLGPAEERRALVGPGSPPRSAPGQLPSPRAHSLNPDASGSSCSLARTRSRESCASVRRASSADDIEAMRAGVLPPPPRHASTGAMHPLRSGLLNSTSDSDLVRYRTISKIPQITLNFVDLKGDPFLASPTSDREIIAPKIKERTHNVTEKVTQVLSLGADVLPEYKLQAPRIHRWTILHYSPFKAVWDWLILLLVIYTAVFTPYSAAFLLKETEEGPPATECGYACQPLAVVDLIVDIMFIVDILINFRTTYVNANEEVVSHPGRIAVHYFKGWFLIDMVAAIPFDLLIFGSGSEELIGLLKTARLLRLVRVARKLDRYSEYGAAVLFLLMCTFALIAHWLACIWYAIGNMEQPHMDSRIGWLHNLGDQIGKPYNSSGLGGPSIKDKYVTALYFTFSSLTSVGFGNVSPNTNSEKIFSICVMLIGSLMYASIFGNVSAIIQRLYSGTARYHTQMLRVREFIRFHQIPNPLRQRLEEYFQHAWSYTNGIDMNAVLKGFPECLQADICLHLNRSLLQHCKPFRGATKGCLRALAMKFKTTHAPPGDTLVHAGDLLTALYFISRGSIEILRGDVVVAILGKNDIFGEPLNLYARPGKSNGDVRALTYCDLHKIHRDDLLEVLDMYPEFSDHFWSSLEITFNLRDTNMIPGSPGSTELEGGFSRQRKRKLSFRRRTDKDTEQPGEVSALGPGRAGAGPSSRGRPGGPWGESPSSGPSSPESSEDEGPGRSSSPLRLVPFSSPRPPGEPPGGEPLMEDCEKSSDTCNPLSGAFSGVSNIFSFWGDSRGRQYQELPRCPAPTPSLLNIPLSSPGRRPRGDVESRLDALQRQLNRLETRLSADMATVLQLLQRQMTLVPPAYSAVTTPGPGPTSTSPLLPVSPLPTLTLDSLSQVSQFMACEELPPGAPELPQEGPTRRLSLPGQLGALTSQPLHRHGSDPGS

In the data set with hiPSC-CMs (0.3 μM), `COc1cc2c(Nc3ccc(Br)cc3F)ncnc2cc1OCC1CCN(C)CC1` [Vandetanib] returned an APA of 104.2 ± 3.0 mV, an APD50 of 349.3 ± 50.9 ms, an APD90 of 481.0 ± 53.9 ms and an MDP of -66.9 ± 2.3 mV. Besides, in the data set on hiPSC-CMs (0.3 μM), the Vmax came out at 40.3 ± 13.9 V/s. Besides, in the data set on hiPSC-CMs (1 μM), the APA was found to be 105.5 ± 3.6 mV, the APD50 came to 596.4 ± 158.8 ms, the APD90 was 880.9 ± 192.6 ms and the MDP is -64.5 ± 2.4 mV. The Vmax in the data set with hiPSC-CMs (1 μM) was 36.0 ± 13.0 V/s. Besides, in the data set with hiPSC-CMs (3 μM), the APA was determined as 100.7 ± 2.2 mV, the APD50 amounted to 1243.0 ± 386.1 ms, the APD90 came out at 2047.9 ± 597.1 ms and the “Decrease of APA compared to vehicle control” value turned out to be 4.2%. In addition, in the data set with hiPSC-CMs (3 μM), the “Decrease of MDP compared to vehicle control” value was 9%, the MDP was -61.0 ± 1.5 mV and the Vmax is given as 19.5 ± 6.5 V/s. The “Early after depolarization (EAD)” value with hiPSC-CMs (3 μM, n = 6 cells) was “induced at 3 μM of vandetanib in all cells tested”. Further, the “Concentration from which prolongation of APD50 and APD90 was observed” value in the data set with hiPSC-CMs (tested 0.3, 1, 3 μM) is not below 1 µM. The IhERG current on IhERG in hiPSC-CMs (0.1 μM) is given as 196.0 ± 3.2. The same compound displayed an IhERG current on IhERG in hiPSC-CMs (0.3 μM) of 164.9 ± 9.4. This compound had an IhERG current on IhERG in hiPSC-CMs (1 μM) of 92.8 ± 11.2. At IhERG in hiPSC-CMs (3 μM), this compound yielded an IhERG current of 20.4 ± 4.4.
